Reference: PubChem BioAssay AID1963844 (Molecular Pharmacology Branch, DTP, NCI, 2024)
“And” between values parts separate entries of the source, which are not always exact repeats. Equal entries are not always repeated.

Tested on: 422866-222-R5-J1-PDC complex spheroid viability
Assay: Anticancer human tumor 422866-222-R5-J1-PDC patient-derived pancreatic adenocarcinoma cell line growth inhibition [POLQ]
Conditions: for viability, T/C: stronger effect = lower value
Experimental: Multicellular complex tumor spheroid response to Polymerase (POL) inhibitors (novobiocin, ART-558, RP6685) in combination with a variety of drugs and investigational agents in selected tumor cell lines
The POL inhibitors (novobiocin, ART-558, and RP6685) were evaluated both individually and in combination with standard of care and investigational anticancer small molecules within a complex spheroid model of solid tumors. . Complex spheroids include a stromal component modeled by human endothelial cells (HUVEC) and fibroblasts modeled by human mesenchymal stem cells (MSCs). The concentration ranges selected for each drug and investigational agent were based upon clinically achievable concentrations if the clinical Cmax of the agent was known.
Compounds. The drugs and investigational agents: novobiocin (NSC847541), ART-558 (NSC835418), RP-6685 (NSC848927), peposertib (NSC802822), ceralasertib (NSC780249), elimusertib (NSC800525), camonsertib (NSC841442), AZD-1390 (NSC803789), olaparib (NSC753686), talazoparib (NSC767125), rucaparib (NSC756644), sotorasib (NSC818433), MRTX-1133 (NSC836407), SN-38 (NSC673596), topotecan (NSC609699), epotoside (NSC141540), doxorubicin (NSC123127), gemcitabine (NSC613327), 5-fluorouracil (NSC19893), paclitaxel (NSC125973), vemurafenib (NSC761431), MSA-2 (NSC828583), SN-011 (NSC837082), adavosertib (NSC754352), prexasertib (NSC758257), carboplatin (NSC241240) and oxaliplatin (NSC266046), were obtained from the National Cancer Institute (NCI) Developmental Therapeutics Program Chemical Repository (21). The FDA-approved anticancer drug set is available from the Developmental Therapeutics Program at https://dtp.cancer.gov/organization/dscb/obtaining/. […] The stock solutions were prepared in dimethyl sulfoxide (DMSO, Sigma-Aldrich, St. Louis, MO, cat. D2650), except for the platinum compounds which were prepared in saline (Quality Biological, Gaithersburg, MD, cat. 114-055-101), at 800-fold the tested concentration and stored at -70 degrees C prior to their use. All drugs and investigational agents were tested over a range starting from a high concentration at or near the clinical Cmax and decreasing in half-log increments. If the clinical Cmax for an agent had not been determined, the highest concentration tested was 10 microM, except for SN-38, which was tested at a high concentration of 1 microM.
Cell Culture. All cells were maintained in an incubator at 37 degrees C and 5% CO2 with 95% humidity. The PDC lines were cultured according to standard operating procedures established by the NCI PDMR (https://pdmr.cancer.gov). Table 3 of the manuscript, lists the cell lines along with the number of the three cell types plated to form the mct-spheroids and media for tumor cell growth. After thawing, all PDC lines, except 997537-175-T-J1-PDC and 415267-285-R-J2-PDC, were cultured in Matrigel-coated flasks prepared with a working solution of 1X Ham's F-12 nutrient mix, without supplementation (Thermo Fisher Scientific, cat. 11765054), 100 U/mL penicillin-streptomycin (Thermo Fisher Scientific, cat. 15140122), and 2.5% Matrigel (Corning Inc., Corning, NY, cat. 354248) for the first three passages. The two PDC lines 997537-175-T-J1-PDC and 415267-285-R-J2-PDC were cultured on uncoated flasks. The 857933-349-R-J2-PDC line was cultured in 6C/Colon 1B media containing advanced DMEM/F-12 (Thermo Fisher Scientific, cat. 12634028), 10 mM HEPES (Thermo Fisher Scientific, cat. 15630080), 1X GlutaMAX supplement (Thermo Fisher Scientific, cat. 35050061), 0.1 mg/mL primocin (InvivoGen, San Diego, CA, cat. ant-pm-2), 10% defined fetal bovine serum, heat inactivated (HyClone Laboratories Inc., Logan, UT, cat. SH30070.03HI), 50% L-WRN conditioned media (ATCC, cat. CRL-3276), 1.25 mM N-Acetyl-L-cysteine (Sigma-Aldrich, cat. A9165), 10 mM nicotinamide (Sigma-Aldrich, cat. N0636), 1X B-27 supplement (Thermo Fisher Scientific, cat. 17504044), 1X N-2 supplement (Thermo Fisher Scientific, cat. […]
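Further: spheroids exposed to compounds for one week before readout.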
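Wherever viability, T/C is given: percent of DMSO vehicle wells luminescence so 100% = untreated viability.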

With `COc1cccc(OCCCN)c1-c1cc(Nc2cnc(C#N)cn2)n[nH]1` the viability, T/C (compound 0.00316 µM) was 61.5% and 71.1% and 79.5%, the viability, T/C (compound 0.01 µM) was 37.6% and 43.8% and 38% and the viability, T/C (compound 0.0316 µM) was 38.3% and 35% and 28.3%. The viability, T/C (compound 0.1 µM) was 38.7% and 31.6% and 31.1%, the viability, T/C (compound 0.316 µM) was 34% and 37.7% and 24.6% and the viability, T/C (compound 1 µM) was 35.8% and 33.7% and 48.9%. The IC50 (curve of compound) was 0.00556 µM and 0.00754 µM and 0.00707 µM.
With `Cc1cccc(N(C)C(=O)C2C(O)CCN2c2nc(C)cc(C(F)(F)F)c2C#N)c1` (stereo unspecified) the viability, T/C (compound 0.1 µM) was 93.7% [middle of 13 runs], the viability, T/C (compound 0.316 µM) was 94.8% [middle of 13 runs] and the viability, T/C (compound 10 µM) was 99.8% [middle of 13 runs]. The IC50 (compound alone, run of 11/27/2023) was over 10 µM and the IC50 (compound alone, run of 12/05/2023) was over 10 µM.
Compound `O=C(c1cc(Cc2n[nH]c(=O)c3ccccc23)ccc1F)N1CCN(C(=O)C2CC2)CC1` + Cc1cccc(N(C)C(=O)C2C(O)CCN2c2nc(C)cc(C(F)(F)F)c2C#N)c1 has an IC50 (curve of first compound, second compound 0.0316 µM) of over 10 µM, an IC50 (curve of first compound, second compound 0.1 µM) of over 10 µM and an IC50 (curve of first compound, second compound 0.316 µM) of over 10 µM. The IC50 (curve of first compound, second compound 1 µM) was over 10 µM, the IC50 (curve of first compound, second compound 3.16 µM) was over 10 µM and the IC50 (curve of first compound, second compound 10 µM) was over 10 µM. For the same compound, the viability, T/C (second compound 0.0316 µM, first compound 0.0316 µM) was 87.5%, the viability, T/C (second compound 0.0316 µM, first compound 0.1 µM) was 103% and the viability, T/C (second compound 0.0316 µM, first compound 0.316 µM) was 89.9%. For the same compound, the viability, T/C (second compound 0.0316 µM, first compound 1 µM) was 92.9%, the viability, T/C (second compound 0.0316 µM, first compound 3.16 µM) was 89.7% and the viability, T/C (second compound 0.0316 µM, first compound 10 µM) was 68.2%. It also gave a viability, T/C (second compound 0.1 µM, first compound 0.0316 µM) of 95.3%, a viability, T/C (second compound 0.1 µM, first compound 0.1 µM) of 104% and a viability, T/C (second compound 0.1 µM, first compound 0.316 µM) of 99%. The viability, T/C (second compound 0.1 µM, first compound 1 µM) was 87.4%, the viability, T/C (second compound 0.1 µM, first compound 3.16 µM) was 87.5% and the viability, T/C (second compound 0.1 µM, first compound 10 µM) was 81.7%. The viability, T/C (second compound 0.316 µM, first compound 0.0316 µM) was 117%, the viability, T/C (second compound 0.316 µM, first compound 0.1 µM) was 95.9% and the viability, T/C (second compound 0.316 µM, first compound 0.316 µM) was 107%. For the same compound, the viability, T/C (second compound 0.316 µM, first compound 1 µM) was 97.6%, the viability, T/C (second compound 0.316 µM, first compound 3.16 µM) was 97.5% and the viability, T/C (second compound 0.316 µM, first compound 10 µM) was 67.3%. It also gave a viability, T/C (second compound 1 µM, first compound 0.0316 µM) of 96.2%, a viability, T/C (second compound 1 µM, first compound 0.1 µM) of 94.4% and a viability, T/C (second compound 1 µM, first compound 0.316 µM) of 86%. For the same compound, the viability, T/C (second compound 1 µM, first compound 1 µM) was 90.5%, the viability, T/C (second compound 1 µM, first compound 3.16 µM) was 82.2% and the viability, T/C (second compound 1 µM, first compound 10 µM) was 68%. The viability, T/C (second compound 3.16 µM, first compound 0.0316 µM) was 87.3%, the viability, T/C (second compound 3.16 µM, first compound 0.1 µM) was 104% and the viability, T/C (second compound 3.16 µM, first compound 0.316 µM) was 104%. It also gave a viability, T/C (second compound 3.16 µM, first compound 1 µM) of 107%, a viability, T/C (second compound 3.16 µM, first compound 3.16 µM) of 86.1% and a viability, T/C (second compound 3.16 µM, first compound 10 µM) of 68%. It also gave a viability, T/C (second compound 10 µM, first compound 0.0316 µM) of 104%, a viability, T/C (second compound 10 µM, first compound 0.1 µM) of 107% and a viability, T/C (second compound 10 µM, first compound 0.316 µM) of 97.7%. The viability, T/C (second compound 10 µM, first compound 1 µM) was 89.8%, the viability, T/C (second compound 10 µM, first compound 3.16 µM) was 80.3% and the viability, T/C (second compound 10 µM, first compound 10 µM) was 76.4%.
In the case of `CC1COCCN1c1cc(C2(O)CC3CCC(C2)O3)c2cnn(-c3ccn[nH]3)c2n1` (stereo unspecified), the viability, T/C (compound 0.0316 µM) is reported as 81.2% and 74.1% and 69.6%, the viability, T/C (compound 0.1 µM) is reported as 53.5% and 43.4% and 42.3% and the viability, T/C (compound 0.316 µM) is reported as 50.6% and 44.2% and 35.5%. For the same compound, the viability, T/C (compound 1 µM) was 84% and 70.7% and 73.2%, the viability, T/C (compound 3.16 µM) was 80.6% and 79% and 77.3% and the viability, T/C (compound 10 µM) was 65.8% and 78.8% and 62.6%. For the same compound, the IC50 (curve of compound) was over 10 µM.
